Assay results published in patent US9546355B2, “Conditional replicating cytomegalovirus as a vaccine for CMV” (Merck Sharp & Dohme Corp., priority 2011, dated 2017).

What was measured:
ARPE-19 cells = assay: Shield-1 concentration dependent progeny virus production (TCID50 assay); type: cell-based; details: rdCMV in ARPE-19 cells and other human primary cells
Method: ARPE-19 cells were infected with the rdCMV viruses at a multiplicity of 0.01 PFU/cell for 1 h, washed twice with fresh medium, and incubated in the growth medium containing 0, 0.05, 0.1 0.5 or 2 μM of Shield-1. Seven days post infection, the cell free virus was collected, and virus titers were determined by TCID50 assay on ARPE-19 cells in the presence of 2 μM of Shield 1.
Varying concentrations of Shld-1 were used in additional experiments to further assess viral replication in the presence or absence of Shld-1. ARPE-19 cells were infected by the gH expressing CMV that also contained a FKBP derivative fused to an essential protein at MOI of […]. After infection for 1 hour, the cells were washed twice with fresh medium to remove the Shld-1 from the inoculums. The inoculums were then added to ARPE-19 cells cultured in medium containing 0.05, 0.1, 0.5 or 2 μM of Shield-1. Seven days post infection, the cell-free progeny virus in the supernatant was collected and titrated on ARPE-19 cells supplemented with […] of Shield-1. Virus titers were determined by a 50% Tissue Culture Infective Dose (TCID50) assay. Briefly, this dilution assay quantifies the amount of virus required to kill 50% of infected hosts. […] After incubation, the percentage of cell death (i.e. infected cells) was manually observed and recorded for each virus dilution. […]

FKBP = details: tighter binding; Clackson et al., 1998; cited from earlier work

CC[C@H](C(=O)N1CCCC[C@H]1C(=O)O[C@H](CCc1ccc(OC)c(OC)c1)c1cccc(OCCN2CCOCC2)c1)c1cc(OC)c(OC)c(OC)c1 [Shield-1]
Molar concentration of Shield-1 in the culture medium required to sustain viral replication (ARPE-19 cells): greater than 0.1 μM | Binding to the F36V derivative compared to wild-type FKBP (FKBP): about 1,000 fold
